Experimental data as given in the NIST ThermoML archive (doi:10.1016/j.jct.2009.05.006).

Experiments:
[1] = excess molar enthalpy (molar enthalpy of mixing); xn = mol fraction of the nth substance listed; conditions: 298.15 K, 101 kPa, Liquid, Calvet calorimetry
[2] = xn = mol fraction of the nth substance listed; conditions: 298.15 K, 101 kPa, Liquid, Vibrating tube method

BrCCCCCCBr [1,6-dibromohexane] + CCCCOC(C)=O
Conditions	excess molar enthalpy [kcal/mol]	mass density [kg/m3]
[1], x2 = 0.0742	0.00813	–
[1], x2 = 0.1664	0.0139	–
[1], x2 = 0.27	0.0179	–
[1], x2 = 0.3625	0.0179	–
[1], x2 = 0.4313	0.0151	–
[1], x2 = 0.4863	0.012	–
[1], x2 = 0.5098	0.00956	–
[1], x2 = 0.5385	0.00741	–
[1], x2 = 0.5631	0.00406	–
[1], x2 = 0.5869	0.00167	–
[1], x2 = 0.6272	-0.00239	–
[1], x2 = 0.6989	-0.00526	–
[1], x2 = 0.7827	-0.00621	–
[1], x2 = 0.8669	-0.00478	–
[1], x2 = 0.9422	-0.00239	–
[2], x2 = 0.1369	–	1513.56
[2], x2 = 0.2111	–	1464.63
[2], x2 = 0.2634	–	1429.52
[2], x2 = 0.3292	–	1384.72
[2], x2 = 0.3855	–	1345.64
[2], x2 = 0.4456	–	1303.3
[2], x2 = 0.5046	–	1260.95
[2], x2 = 0.5622	–	1219.05
[2], x2 = 0.6175	–	1178.12
[2], x2 = 0.7334	–	1090.14
[2], x2 = 0.7855	–	1049.66
[2], x2 = 0.8433	–	1003.91
[2], x2 = 0.8909	–	965.75
[2], x2 = 0.9462	–	920.67

CCCCOC(=O)CCC [butyl butanoate] + BrCCCCCCBr
Conditions	excess molar enthalpy [kcal/mol]	mass density [kg/m3]
[1], x1 = 0.0751	0.00502	–
[1], x1 = 0.1669	0.00693	–
[1], x1 = 0.2609	0.00669	–
[1], x1 = 0.3471	0.00454	–
[1], x1 = 0.418	0.000478	–
[1], x1 = 0.4834	-0.00406	–
[1], x1 = 0.5223	-0.00789	–
[1], x1 = 0.5361	-0.0086	–
[1], x1 = 0.5892	-0.0105	–
[1], x1 = 0.6544	-0.0115	–
[1], x1 = 0.7475	-0.0115	–
[1], x1 = 0.8287	-0.00956	–
[1], x1 = 0.9253	-0.00502	–
[2], x1 = 0.0615	–	1551.3
[2], x1 = 0.114	–	1509.95
[2], x1 = 0.1733	–	1463.7
[2], x1 = 0.2207	–	1427.05
[2], x1 = 0.2782	–	1383.1
[2], x1 = 0.3299	–	1343.86
[2], x1 = 0.3955	–	1294.64
[2], x1 = 0.4505	–	1253.75
[2], x1 = 0.5089	–	1210.69
[2], x1 = 0.5674	–	1168
[2], x1 = 0.6293	–	1123.3
[2], x1 = 0.68	–	1087.08
[2], x1 = 0.7477	–	1039.01
[2], x1 = 0.8082	–	996.64
[2], x1 = 0.8735	–	951.23
[2], x1 = 0.9358	–	908.5

BrCCCCCBr [1,5-dibromopentane] + CCCCOC(C)=O
[1]
Conditions	excess molar enthalpy [kcal/mol]
x2 = 0.0669	0.00669
x2 = 0.1499	0.00956
x2 = 0.2436	0.01
x2 = 0.3318	0.00837
x2 = 0.4096	0.00454
x2 = 0.4762	0.000239
x2 = 0.5331	-0.00478
x2 = 0.5566	-0.00765
x2 = 0.5827	-0.00932
x2 = 0.6168	-0.0124
x2 = 0.6927	-0.0151
x2 = 0.7844	-0.0141
x2 = 0.8533	-0.0105
x2 = 0.9377	-0.00574

BrCCCBr [1,3-dibromopropane] + CCCCOC(C)=O
[1]
Conditions	excess molar enthalpy [kcal/mol]
x2 = 0.0548	0.00191
x2 = 0.1295	0.00287
x2 = 0.2133	0.00191
x2 = 0.2909	-0.00167
x2 = 0.3612	-0.0086
x2 = 0.424	-0.017
x2 = 0.4792	-0.0251
x2 = 0.5321	-0.0289
x2 = 0.6141	-0.0296
x2 = 0.7077	-0.0277
x2 = 0.808	-0.0217
x2 = 0.9143	-0.0131

BrCCCCCBr [1,5-dibromopentane] + CCCCOC=O
Conditions	excess molar enthalpy [kcal/mol]	mass density [kg/m3]
[1], x2 = 0.0868	0.0232	–
[1], x2 = 0.1853	0.0394	–
[1], x2 = 0.2872	0.0531	–
[1], x2 = 0.3842	0.0598	–
[1], x2 = 0.4656	0.0605	–
[1], x2 = 0.5328	0.0578	–
[1], x2 = 0.5803	0.0557	–
[1], x2 = 0.6291	0.0521	–
[1], x2 = 0.7084	0.0447	–
[1], x2 = 0.7902	0.0332	–
[1], x2 = 0.8713	0.0215	–
[1], x2 = 0.9437	0.0112	–
[2], x2 = 0.0756	–	1642.01
[2], x2 = 0.1366	–	1599.08
[2], x2 = 0.2027	–	1551.59
[2], x2 = 0.2682	–	1503.58
[2], x2 = 0.3259	–	1460.47
[2], x2 = 0.3871	–	1413.8
[2], x2 = 0.4492	–	1365.54
[2], x2 = 0.5143	–	1313.85
[2], x2 = 0.5679	–	1270.35
[2], x2 = 0.6274	–	1221.19
[2], x2 = 0.687	–	1170.94
[2], x2 = 0.7958	–	1076.48
[2], x2 = 0.8434	–	1033.97
[2], x2 = 0.9499	–	936.18

BrCCCCBr [1,4-dibromobutane] + CCCCOC(C)=O
Conditions	excess molar enthalpy [kcal/mol]	mass density [kg/m3]
[1], x2 = 0.0576	0.00335	–
[1], x2 = 0.135	0.00574	–
[1], x2 = 0.2211	0.00621	–
[1], x2 = 0.3056	0.00359	–
[1], x2 = 0.3729	-0.000956	–
[1], x2 = 0.4291	-0.00621	–
[1], x2 = 0.4798	-0.0124	–
[1], x2 = 0.4866	-0.0158	–
[1], x2 = 0.5277	-0.0186	–
[1], x2 = 0.5406	-0.021	–
[1], x2 = 0.603	-0.0234	–
[1], x2 = 0.6715	-0.0237	–
[1], x2 = 0.7464	-0.0222	–
[1], x2 = 0.8416	-0.0155	–
[1], x2 = 0.9307	-0.00717	–
[2], x1 = 0.06	–	1754.15
[2], x1 = 0.1131	–	1699.34
[2], x1 = 0.1633	–	1648.18
[2], x1 = 0.2229	–	1588.24
[2], x1 = 0.2748	–	1536.73
[2], x1 = 0.3886	–	1426
[2], x1 = 0.4426	–	1374.38
[2], x1 = 0.5	–	1320.28
[2], x1 = 0.6216	–	1207.87
[2], x1 = 0.6806	–	1154.38
[2], x1 = 0.8076	–	1041.44
[2], x1 = 0.8633	–	992.97
[2], x1 = 0.9298	–	935.67

CCCCOC(=O)CCC [butyl butanoate] + BrCCCCCBr
Conditions	excess molar enthalpy [kcal/mol]	mass density [kg/m3]
[1], x1 = 0.0642	0.00645	–
[1], x1 = 0.1447	0.0108	–
[1], x1 = 0.2305	0.012	–
[1], x1 = 0.3193	0.00956	–
[1], x1 = 0.3711	0.00621	–
[1], x1 = 0.3957	0.0043	–
[1], x1 = 0.4159	0.000956	–
[1], x1 = 0.4621	-0.00359	–
[1], x1 = 0.4668	-0.00478	–
[1], x1 = 0.5278	-0.00932	–
[1], x1 = 0.6041	-0.0115	–
[1], x1 = 0.6965	-0.0129	–
[1], x1 = 0.806	-0.0115	–
[1], x1 = 0.9138	-0.00693	–
[2], x1 = 0.0517	–	1642.59
[2], x1 = 0.1033	–	1591.9
[2], x1 = 0.1521	–	1545.03
[2], x1 = 0.2029	–	1497.33
[2], x1 = 0.2545	–	1449.85
[2], x1 = 0.3101	–	1399.96
[2], x1 = 0.3663	–	1350.58
[2], x1 = 0.4214	–	1303.32
[2], x1 = 0.478	–	1255.87
[2], x1 = 0.6053	–	1153.05
[2], x1 = 0.6591	–	1111.13
[2], x1 = 0.7254	–	1060.71
[2], x1 = 0.7885	–	1013.92
[2], x1 = 0.8577	–	963.85
[2], x1 = 0.9262	–	915.51

BrCCCCCCBr [1,6-dibromohexane] + CCCCOC=O
Conditions	excess molar enthalpy [kcal/mol]	mass density [kg/m3]
[1], x2 = 0.0858	0.0241	–
[1], x2 = 0.1844	0.0413	–
[1], x2 = 0.2879	0.0566	–
[1], x2 = 0.3755	0.0655	–
[1], x2 = 0.4521	0.0686	–
[1], x2 = 0.5188	0.0674	–
[1], x2 = 0.6009	0.0636	–
[1], x2 = 0.6581	0.0583	–
[1], x2 = 0.7307	0.0497	–
[1], x2 = 0.8078	0.0375	–
[1], x2 = 0.8827	0.0246	–
[1], x2 = 0.9487	0.0134	–
[2], x2 = 0.0793	–	1558.23
[2], x2 = 0.1555	–	1514.85
[2], x2 = 0.2238	–	1474.51
[2], x2 = 0.2952	–	1430.8
[2], x2 = 0.3567	–	1391.77
[2], x2 = 0.4201	–	1350.14
[2], x2 = 0.4813	–	1308.59
[2], x2 = 0.5983	–	1224.92
[2], x2 = 0.6603	–	1178.22
[2], x2 = 0.7628	–	1097.17
[2], x2 = 0.8097	–	1058.36
[2], x2 = 0.854	–	1020.74
[2], x2 = 0.9078	–	973.55

BrCCCBr [1,3-dibromopropane] + CCCCOC(=O)CC
[1]
Conditions	excess molar enthalpy [kcal/mol]
x2 = 0.045	0.00765
x2 = 0.1122	0.0124
x2 = 0.1829	0.0129
x2 = 0.2541	0.00908
x2 = 0.3191	0.00215
x2 = 0.3797	-0.00813
x2 = 0.4331	-0.0151
x2 = 0.4438	-0.017
x2 = 0.5107	-0.0229
x2 = 0.5886	-0.0261
x2 = 0.6793	-0.0263
x2 = 0.7807	-0.022
x2 = 0.8921	-0.0131

BrCCCCCBr [1,5-dibromopentane] + CCCCOC(=O)CC
[1]
Conditions	excess molar enthalpy [kcal/mol]
x2 = 0.0697	0.00741
x2 = 0.1544	0.012
x2 = 0.248	0.0124
x2 = 0.3363	0.00884
x2 = 0.4134	0.00263
x2 = 0.4801	-0.00526
x2 = 0.4924	-0.00884
x2 = 0.5371	-0.0131
x2 = 0.5511	-0.0165
x2 = 0.6257	-0.0206
x2 = 0.7153	-0.021
x2 = 0.8183	-0.016
x2 = 0.9151	-0.00884
